Measured values published in patent US4945055A, “Human chorionic gonadotropin releasing factor” (Board of Regents, University of Texas System, priority 1986, dated 1990).

Columns and labels:
[1] = tested on: human chorionic gonadotropin releasing factor (hCG-RF), glycoprotein purified from human term placenta, peptidase activity degrading GnRH; assay: Loss of GnRH immunoreactivity on incubation with hCG-RF (GnRH-RIA after Sephadex G-150); type: biochemical; conditions: hCG-RF 41 ug, GnRH 40 ng, 24 h at 4° C.
Experimental: The effect of purified hCG-RF on GnRH immunoreactivity was studied. […] Chromatography of 0.1 ml of the incubate on Sephadex G-150 (1×20 cm in 0.01M TRIS, 0.001M DTT) followed, collecting 1 ml fraction. Immunoreactive GnRH was determined by GnRH-RIA.

[2] = target: placental receptor recognizing synthetic GnRH; conditions: read-out: dissociation constant of the placental receptor for synthetic GnRH; cited from earlier work

bacitracin
reversal of the loss of GnRH immunoreactivity effected by incubation with hCG-RF ([1]; 5000 unit bacitracin added with the buffer): totally reversed

N=C(N)c1ccc(N)cc1 [para-amino-benzamidine]
reversal of the loss of GnRH immunoreactivity effected by incubation with hCG-RF ([1]; 175 mM para-amino-benzamidine added with the buffer): totally reversed

CC(C)C[C@H](NC(=O)CNC(=O)[C@H](Cc1ccc(O)cc1)NC(=O)[C@H](CO)NC(=O)[C@H](Cc1c[nH]c2ccccc12)NC(=O)[C@H](Cc1c[nH]cn1)NC(=O)[C@@H]1CCC(=O)N1)C(=O)N[C@@H](CCCNC(=N)N)C(=O)N1CCC[C@H]1C(=O)NCC(N)=O [synthetic GnRH, pyro-glu-his-trp-ser-tyr-gly-leu-arg-pro-gly-NH2]
Kd [2]: 100 nM
